Measurements: ChEMBL document CHEMBL1201862, “PubChem BioAssay data set” (2004)
The source made the active and inactive calls.

Legend:
[1] = system: Escherichia coli; experiment: microbe, parasite or virus in culture
[2] = molecular target: T1, Bcl-2-related protein A1 (Mus musculus, UniProt Q07440); type: functional;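 also: confirmatory dose–response counterscreen on Bfl-1, used to check hits from a UBC13 polyubiquitin inhibitor campaign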
T1 sequence (Q07440 whole entry): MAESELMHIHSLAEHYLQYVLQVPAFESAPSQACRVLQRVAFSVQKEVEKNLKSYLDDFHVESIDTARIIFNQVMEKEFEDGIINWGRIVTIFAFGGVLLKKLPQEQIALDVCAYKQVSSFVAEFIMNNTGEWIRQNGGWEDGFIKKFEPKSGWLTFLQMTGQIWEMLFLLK

[3] = molecular target: T2, Ubiquitin-conjugating enzyme E2 N (Homo sapiens, UniProt P61088); type: functional
T2 sequence (P61088 whole entry): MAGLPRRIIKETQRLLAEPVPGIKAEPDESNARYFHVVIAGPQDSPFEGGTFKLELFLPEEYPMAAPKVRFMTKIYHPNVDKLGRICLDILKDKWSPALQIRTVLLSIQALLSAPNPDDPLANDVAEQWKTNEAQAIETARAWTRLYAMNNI

[4] = molecular target: T2, Ubiquitin-conjugating enzyme E2 N; type: functional; remark: listed apart in the source
[5] = molecular target: 26S proteasome non-ATPase regulatory subunit 14 (Homo sapiens, UniProt O00487); experiment: inhibition of proteasome subunit RPN11 – biochemical, fluorescence polarization, uHTS hits, confirmation (AID 602368); type: functional
[6] = molecular target: 72 kDa type IV collagenase (Homo sapiens, UniProt P08253); experiment: Dose Response validation of uHTS RPN11 inhibitor hits using a MMP-2 Fluorescence assay.; type: functional
[7] = molecular target: Prothrombin (Bos taurus, UniProt P00735); experiment: thrombin protease inhibitors – biochemical, fluorescence polarization, uHTS hits, dose response (AID 602369); type: functional
[8] = Vero E6 cell cytotoxicity, dose response, cytotoxicity control for non-replicating M. tuberculosis project, secondary assay (AID 492998); type: functional, VeroE6; conditions: Vero C1008
[9] = cells; type: functional
[10] = viability of uninfected HEp-2 cells – cell-based, HTS, cytotoxicity control for RSV inhibitor project, dose response (AID 2410); type: functional; conditions: human respiratory syncytial virus
[11] = molecular target: Ras and Rab interactor 1/Tyrosine-protein kinase ABL1 (Homo sapiens, UniProt P00519+Q13671); type: functional;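 also: biochemical TR-FRET dose-response test measuring inhibition of binding between Rin1 and Abl proteins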
[12] = molecular target: T3, Rac GTPase-activating protein 1 (Homo sapiens, UniProt Q9H0H5); experiment: blockers of MgcRacGAP-driven Rac1 GTP hydrolysis – biochemical, ADP Hunter fluorescence, primary and confirmatory, confirmation (AID 624330); type: functional
T3 sequence (Q9H0H5 whole entry): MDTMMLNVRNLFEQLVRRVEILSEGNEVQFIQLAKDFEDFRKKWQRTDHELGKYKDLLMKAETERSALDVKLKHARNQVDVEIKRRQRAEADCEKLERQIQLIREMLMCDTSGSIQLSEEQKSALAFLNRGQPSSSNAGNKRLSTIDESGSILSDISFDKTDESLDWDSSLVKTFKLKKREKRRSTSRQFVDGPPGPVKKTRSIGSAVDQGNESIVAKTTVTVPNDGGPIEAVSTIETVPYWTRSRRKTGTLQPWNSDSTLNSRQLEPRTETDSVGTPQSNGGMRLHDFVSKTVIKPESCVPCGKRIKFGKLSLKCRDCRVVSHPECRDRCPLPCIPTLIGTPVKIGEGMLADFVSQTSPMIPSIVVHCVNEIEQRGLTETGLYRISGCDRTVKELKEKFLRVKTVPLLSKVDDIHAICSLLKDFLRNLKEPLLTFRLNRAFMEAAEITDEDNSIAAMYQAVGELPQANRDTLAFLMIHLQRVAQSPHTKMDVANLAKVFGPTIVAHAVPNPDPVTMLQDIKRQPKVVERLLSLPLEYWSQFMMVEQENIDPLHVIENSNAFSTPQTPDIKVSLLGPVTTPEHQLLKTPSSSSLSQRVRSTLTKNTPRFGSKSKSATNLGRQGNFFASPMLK

[13] = molecular target: Nonstructural protein 1 (Influenza A virus, UniProt Q194T2); type: functional, Influenza A virus (A/California/07/2009(H1N1))
[14] = system: Streptococcus sp. 'group A'; experiment: Streptococcus pyogenes SK(-)GAS viability under kanamycin – luminescence, BacTiterGlo, confirmation, counter-screen for streptokinase expression inhibitor project, dose response (AID 1900); type: functional, organism-based
[15] = system: Streptococcus; experiment: GAS UMAA2166 growth inhibition – luminescence, BacTiterGlo, counter-screen for streptokinase expression inhibitor project, dose response (AID 1915); type: functional, organism-based;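 also: potency for reduction of bacterial viability or growth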
[16] = THP-1 cell cytotoxicity, dose response, cytotoxicity control for non-replicating M. tuberculosis project (AID 489025); type: functional
[17] = molecular target: Eukaryotic translation initiation factor 4E (Mus musculus, UniProt P63073); experiment: blockers of eIF4G binding by eIF4E – biochemical, TR-FRET, dose response (AID 855); type: functional;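 also: potency for disrupting eIF4E binding to eIF4GI seen as loss of FRET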
[18] = bead-based luminescence quenchers, dual-tagged ARNT – biochemical, AlphaScreen, cherry-pick, artefact control for ARNT-TACC3 interaction inhibitor project, dose response (AID 651705); type: functional;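 also: AlphaScreen bead proximity signal that flags compounds interfering with the detection technology; potency reflects signal decrease which marks the compound as an assay artifact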
[19] = Trypanosoma cruzi growth suppression in host cells – NIH3T3 host cells, beta-gal luminescence, confirmation (AID 2044); type: functional, cell-based;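 also: intracellular parasites grown in NIH/3T3 mouse fibroblasts as host cells; luminescent beta-galactosidase reporter signal from transgenic T. cruzi replicating inside host cells; inhibitors lower the luminescence signal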
[20] = NIH3T3 cell viability loss – ATP luminescence, mouse fibroblasts, counter-screen, dose response (AID 2010); type: functional, cell-based;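 also: cells exposed to compound for about 90 hours before reading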
[21] = molecular target: T4, Corticotropin-releasing factor receptor 2/Corticotropin-releasing factor-binding protein (Homo sapiens, UniProt P24387+Q13324); experiment: Dose Response confirmation of uHTS hits for small molecule antagonists of the CRF-binding protein and CRF-R2 receptor complex.; type: functional; conditions: read-out: IC50_Mean
T4 sequence (Q13324 whole entry): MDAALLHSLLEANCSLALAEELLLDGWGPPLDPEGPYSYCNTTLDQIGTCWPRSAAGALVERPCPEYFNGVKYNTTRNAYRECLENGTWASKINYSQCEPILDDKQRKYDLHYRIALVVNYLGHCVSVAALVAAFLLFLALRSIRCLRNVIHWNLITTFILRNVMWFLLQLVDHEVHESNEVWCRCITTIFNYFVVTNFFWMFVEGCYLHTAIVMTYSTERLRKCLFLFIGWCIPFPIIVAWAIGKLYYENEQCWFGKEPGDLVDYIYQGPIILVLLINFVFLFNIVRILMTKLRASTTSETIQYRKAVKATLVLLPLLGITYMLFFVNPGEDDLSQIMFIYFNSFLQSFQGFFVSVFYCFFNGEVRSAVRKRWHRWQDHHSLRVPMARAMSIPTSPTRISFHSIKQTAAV
T4 sequence (P24387 whole entry): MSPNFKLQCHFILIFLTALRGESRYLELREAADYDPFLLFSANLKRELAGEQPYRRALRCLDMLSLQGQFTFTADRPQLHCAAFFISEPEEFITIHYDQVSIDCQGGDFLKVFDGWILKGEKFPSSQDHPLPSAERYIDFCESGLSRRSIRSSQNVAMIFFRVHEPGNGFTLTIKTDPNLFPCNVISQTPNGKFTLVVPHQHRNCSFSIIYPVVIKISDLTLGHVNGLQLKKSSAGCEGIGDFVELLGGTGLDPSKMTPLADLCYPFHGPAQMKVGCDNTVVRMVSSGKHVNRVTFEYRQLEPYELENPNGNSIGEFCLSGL

[22] = molecular target: T4, Corticotropin-releasing factor receptor 2/Corticotropin-releasing factor-binding protein; experiment: activators of CRF receptor 2 with binding protein – uHTS hits, confirmation (AID 602473); type: functional; conditions: read-out: EC50_Mean
[23] = molecular target: T5, Cytochrome P450 1A2 (Homo sapiens, UniProt P05177);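 also: PubChem cytochrome P450 panel assay, CYP1A2 panel member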
T5 sequence (P05177 whole entry): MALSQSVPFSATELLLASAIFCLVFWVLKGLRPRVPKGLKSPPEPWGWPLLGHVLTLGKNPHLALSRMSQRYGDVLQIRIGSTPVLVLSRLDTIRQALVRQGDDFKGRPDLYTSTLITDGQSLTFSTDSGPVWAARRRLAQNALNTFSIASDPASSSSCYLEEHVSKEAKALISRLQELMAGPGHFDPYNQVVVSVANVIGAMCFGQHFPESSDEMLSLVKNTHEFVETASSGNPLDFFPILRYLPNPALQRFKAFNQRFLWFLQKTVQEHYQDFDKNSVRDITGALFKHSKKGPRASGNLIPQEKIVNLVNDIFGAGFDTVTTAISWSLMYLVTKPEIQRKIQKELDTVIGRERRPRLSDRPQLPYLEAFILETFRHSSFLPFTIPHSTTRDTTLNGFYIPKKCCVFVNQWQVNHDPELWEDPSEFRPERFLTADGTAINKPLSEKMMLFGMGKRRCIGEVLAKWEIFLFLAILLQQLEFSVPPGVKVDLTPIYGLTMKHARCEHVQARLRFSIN

[24] = molecular target: T6, Cytochrome P450 2C9 (Homo sapiens, UniProt P11712)
[25] = molecular target: Peroxisome proliferator-activated receptor gamma/Nuclear receptor coactivator 2 (Homo sapiens, UniProt P37231); type: functional;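 also: agonist potency for raising coactivator recruitment to the receptor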
[26] = molecular target: Peroxisome proliferator-activated receptor gamma/Nuclear receptor coactivator 1 (Homo sapiens, UniProt P37231); type: functional;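 also: agonist potency as compounds enhance coactivator SRC-1 recruitment to PPARgamma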
[27] = molecular target: Peroxisome proliferator-activated receptor gamma/Nuclear receptor coactivator 3 (Homo sapiens, UniProt P37231); type: functional;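 also: agonist potency for raising coactivator recruitment to the receptor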
[28] = system: HeLa; experiment: ATP-based viability loss in HeLa cells – cell-based, CellTiter-Glo luminescence, cherry-pick samples, cytotoxicity control for MITF activator project, dose response (AID 540259); type: functional; conditions: Homo sapiens
[29] = molecular target: T6, Cytochrome P450 2C9; remark: listed apart in the source

Sequence of Eukaryotic translation initiation factor 4E (P63073 whole entry): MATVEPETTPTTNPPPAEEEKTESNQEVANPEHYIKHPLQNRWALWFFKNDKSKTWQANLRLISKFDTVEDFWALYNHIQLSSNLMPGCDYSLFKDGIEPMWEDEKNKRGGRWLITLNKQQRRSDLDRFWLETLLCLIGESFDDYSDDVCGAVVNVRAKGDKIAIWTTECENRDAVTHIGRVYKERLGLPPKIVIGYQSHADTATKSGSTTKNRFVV
T6 sequence (P11712 whole entry): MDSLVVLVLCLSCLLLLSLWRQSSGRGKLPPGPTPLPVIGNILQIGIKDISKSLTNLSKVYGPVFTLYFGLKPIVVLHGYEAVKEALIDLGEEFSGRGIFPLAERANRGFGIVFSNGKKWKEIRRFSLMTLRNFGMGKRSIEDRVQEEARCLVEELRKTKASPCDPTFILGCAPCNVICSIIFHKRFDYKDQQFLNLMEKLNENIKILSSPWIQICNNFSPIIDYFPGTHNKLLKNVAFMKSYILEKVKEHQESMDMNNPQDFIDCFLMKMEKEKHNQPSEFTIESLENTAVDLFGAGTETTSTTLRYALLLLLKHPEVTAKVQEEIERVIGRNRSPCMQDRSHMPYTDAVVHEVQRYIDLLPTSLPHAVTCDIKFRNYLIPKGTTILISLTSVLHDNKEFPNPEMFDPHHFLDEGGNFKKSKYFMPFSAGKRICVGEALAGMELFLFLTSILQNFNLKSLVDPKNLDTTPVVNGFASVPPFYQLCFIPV
Sequence of Ras and Rab interactor 1/Tyrosine-protein kinase ABL1 (P00519 whole entry): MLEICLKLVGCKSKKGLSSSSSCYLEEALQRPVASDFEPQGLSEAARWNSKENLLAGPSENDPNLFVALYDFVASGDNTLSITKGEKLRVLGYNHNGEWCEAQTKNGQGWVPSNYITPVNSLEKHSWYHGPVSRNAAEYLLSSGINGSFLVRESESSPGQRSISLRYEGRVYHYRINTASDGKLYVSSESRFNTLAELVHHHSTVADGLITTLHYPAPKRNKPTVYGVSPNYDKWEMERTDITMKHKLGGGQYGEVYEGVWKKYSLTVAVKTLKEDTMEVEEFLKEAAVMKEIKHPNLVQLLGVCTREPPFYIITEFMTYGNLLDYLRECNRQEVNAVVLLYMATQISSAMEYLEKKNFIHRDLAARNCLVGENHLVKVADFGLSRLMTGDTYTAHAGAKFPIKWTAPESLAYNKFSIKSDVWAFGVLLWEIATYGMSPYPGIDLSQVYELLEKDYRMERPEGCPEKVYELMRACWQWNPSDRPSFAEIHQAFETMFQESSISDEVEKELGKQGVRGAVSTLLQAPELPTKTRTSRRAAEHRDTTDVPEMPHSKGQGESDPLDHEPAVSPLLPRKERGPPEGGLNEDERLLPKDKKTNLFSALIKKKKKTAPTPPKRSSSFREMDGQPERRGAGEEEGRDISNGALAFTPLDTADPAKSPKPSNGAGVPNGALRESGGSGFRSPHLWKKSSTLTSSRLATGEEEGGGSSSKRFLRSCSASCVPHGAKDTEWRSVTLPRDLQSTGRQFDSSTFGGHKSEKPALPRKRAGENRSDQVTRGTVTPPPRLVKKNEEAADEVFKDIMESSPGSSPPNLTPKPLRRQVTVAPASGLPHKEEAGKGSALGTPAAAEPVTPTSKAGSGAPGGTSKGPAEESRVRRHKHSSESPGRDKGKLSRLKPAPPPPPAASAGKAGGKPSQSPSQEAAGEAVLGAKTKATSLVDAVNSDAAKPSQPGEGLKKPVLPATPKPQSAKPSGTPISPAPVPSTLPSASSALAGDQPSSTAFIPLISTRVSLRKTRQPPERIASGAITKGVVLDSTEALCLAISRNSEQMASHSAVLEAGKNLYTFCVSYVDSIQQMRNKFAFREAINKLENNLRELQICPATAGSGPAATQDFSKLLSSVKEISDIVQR
Sequence of Ras and Rab interactor 1/Tyrosine-protein kinase ABL1 (Q13671 whole entry): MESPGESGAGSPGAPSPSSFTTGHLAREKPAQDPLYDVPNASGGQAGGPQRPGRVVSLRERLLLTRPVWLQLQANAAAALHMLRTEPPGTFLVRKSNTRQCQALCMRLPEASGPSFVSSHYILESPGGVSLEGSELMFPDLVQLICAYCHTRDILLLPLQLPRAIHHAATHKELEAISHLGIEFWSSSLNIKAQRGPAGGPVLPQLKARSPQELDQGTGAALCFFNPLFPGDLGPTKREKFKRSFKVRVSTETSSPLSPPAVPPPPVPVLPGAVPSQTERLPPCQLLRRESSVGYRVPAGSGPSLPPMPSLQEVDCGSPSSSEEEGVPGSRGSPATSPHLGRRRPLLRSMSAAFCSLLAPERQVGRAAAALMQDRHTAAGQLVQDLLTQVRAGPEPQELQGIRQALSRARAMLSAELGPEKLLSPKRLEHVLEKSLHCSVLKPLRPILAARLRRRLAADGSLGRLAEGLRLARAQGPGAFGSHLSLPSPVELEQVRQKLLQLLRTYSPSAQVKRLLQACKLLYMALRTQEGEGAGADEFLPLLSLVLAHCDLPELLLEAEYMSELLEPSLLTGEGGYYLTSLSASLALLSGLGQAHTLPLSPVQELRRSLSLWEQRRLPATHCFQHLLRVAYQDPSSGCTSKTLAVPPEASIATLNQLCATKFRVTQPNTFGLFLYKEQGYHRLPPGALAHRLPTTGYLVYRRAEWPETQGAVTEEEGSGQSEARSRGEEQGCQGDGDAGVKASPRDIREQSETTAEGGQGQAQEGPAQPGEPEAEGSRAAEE
Sequence of 26S proteasome non-ATPase regulatory subunit 14 (O00487 whole entry): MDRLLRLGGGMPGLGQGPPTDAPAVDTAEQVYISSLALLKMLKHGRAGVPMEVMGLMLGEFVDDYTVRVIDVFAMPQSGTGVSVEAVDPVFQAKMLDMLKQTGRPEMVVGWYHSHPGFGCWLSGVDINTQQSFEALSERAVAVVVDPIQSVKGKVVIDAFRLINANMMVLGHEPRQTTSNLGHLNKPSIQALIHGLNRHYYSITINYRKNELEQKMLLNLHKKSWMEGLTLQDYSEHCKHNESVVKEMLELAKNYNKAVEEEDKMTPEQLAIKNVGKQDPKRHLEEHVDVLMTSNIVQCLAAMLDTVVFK
Sequence of 72 kDa type IV collagenase (P08253 whole entry): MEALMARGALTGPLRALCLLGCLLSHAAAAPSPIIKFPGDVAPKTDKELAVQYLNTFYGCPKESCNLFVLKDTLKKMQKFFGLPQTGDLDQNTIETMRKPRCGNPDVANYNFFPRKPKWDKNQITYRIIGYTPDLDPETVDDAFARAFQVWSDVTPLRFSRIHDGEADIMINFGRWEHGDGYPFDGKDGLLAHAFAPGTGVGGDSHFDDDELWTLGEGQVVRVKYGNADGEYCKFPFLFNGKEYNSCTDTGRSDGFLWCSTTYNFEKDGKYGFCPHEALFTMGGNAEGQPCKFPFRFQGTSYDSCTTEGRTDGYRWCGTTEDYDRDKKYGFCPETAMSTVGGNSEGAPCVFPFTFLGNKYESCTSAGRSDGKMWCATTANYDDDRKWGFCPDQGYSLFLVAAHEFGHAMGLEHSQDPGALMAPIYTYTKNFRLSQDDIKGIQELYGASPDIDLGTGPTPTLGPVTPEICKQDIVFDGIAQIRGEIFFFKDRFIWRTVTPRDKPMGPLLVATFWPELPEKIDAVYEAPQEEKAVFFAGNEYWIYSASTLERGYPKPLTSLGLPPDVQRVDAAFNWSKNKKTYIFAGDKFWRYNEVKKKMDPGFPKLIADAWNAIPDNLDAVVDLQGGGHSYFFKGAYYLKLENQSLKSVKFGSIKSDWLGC
Sequence of Nonstructural protein 1 (Q194T2 whole entry): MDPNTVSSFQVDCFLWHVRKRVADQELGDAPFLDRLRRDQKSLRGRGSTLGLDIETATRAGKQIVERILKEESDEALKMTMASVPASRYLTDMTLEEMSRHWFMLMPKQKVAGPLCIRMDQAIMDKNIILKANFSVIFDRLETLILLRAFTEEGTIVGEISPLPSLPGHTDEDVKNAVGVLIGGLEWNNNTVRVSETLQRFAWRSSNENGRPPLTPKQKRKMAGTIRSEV

SMILES: OC1(c2ccccc2Cl)NN=C2CCCCCN21 (centres undefined)
- AC50 [1]: 26 µM (active)

SMILES: Cc1nc2ccccc2n1C1CCN(CC(=O)Nc2ccccc2Br)CC1 [ASN06356088]
- IC50 [2]: > 20 µM (inactive)
- IC50 [3]: 16.4 µM (active)
- IC50 [4]: > 20 µM (inactive)

SMILES: C=Cc1ccc(Cn2c(C(=O)O)c(C=O)c3ccccc32)cc1
- IC50 [5]: 12.6 µM (active)
- IC50 [6]: > 100 µM (inactive)
- IC50 [7]: 39.1 µM (active)

SMILES: CC(C)(C)c1ccc(-c2nc(C#N)c(NCCCn3ccnc3)o2)cc1
- CC50 [8]: > 20 µM (active)
- IC50 [9]: 25.4 µM (active)

SMILES: Cc1nc(Nc2cccc(O)c2)c2c3c(sc2n1)CCC3
- CC50 [10]: 12.7 µM (active)
- IC50 [11]: > 73.5 µM (inactive)

SMILES: CCc1ccc(OCC(=O)NNC(=O)c2cc(S(=O)(=O)N(C)C)ccc2N2CCCC2)cc1
- IC50 [5]: 47 µM (active)
- IC50 [6]: 23.6 µM (active)
- IC50 [7]: > 100 µM (inactive)

SMILES: C#CCOCCOCCOCCNc1nc(N2CCN(C(=O)[C@H](CCCCN)n3cc(CN)nn3)CC2)nc(N2CCN(C(=O)[C@H](CCCCN)n3cc(CN)nn3)CC2)n1
- IC50 [2]: > 20 µM (inactive)
- IC50 [3]: 5.36 µM (active)
- IC50 [4]: 5.15 µM (active)
- IC50 [12]: 203 µM (active)

SMILES: Cc1ccc2c(c1)C1CN(C)CCC1N2S(=O)(=O)c1ccc(Oc2ccc([N+](=O)[O-])cc2)cc1 (centres undefined)
- IC50 [13]: > 100 µM (active)

SMILES: Oc1nc2ccccc2n1C1CCN(C(c2nnnn2-c2ccc3c(c2)OCCO3)C2CC2)CC1 (centres undefined)
- IC50 [11]: 40.9 µM (inactive)

SMILES: Cc1cc(Nc2ccccc2)n(-c2nc3ccccc3[nH]2)n1
- EC50 [14]: 2.16 µM (active)
- EC50 [15]: 5.5 µM (active)
- CC50 [16]: 38 µM (active)
- CC50 [8]: 18.8 µM (active)
- IC50 [9]: 1.07 µM (active)

SMILES: O=C(CSc1nnc(CNc2ccccc2)o1)N1CCc2ccccc21
- IC50 [17]: > 64 µM (inactive)

SMILES: O=C(N[C@@H]1CC[C@@H](CCn2cc(-c3ccccn3)nn2)O[C@H]1CO)c1ccncc1
- AC50 [18]: 72.8 µM (active)

SMILES: Cc1cc(C)c2sc(N(CCCN(C)C)C(=O)c3ccc(S(=O)(=O)N(C)C4CCCCC4)cc3)nc2c1
- EC50 [19]: 0.385 µM (active)
- EC50 [20]: > 30 µM (not active)
- IC50 [2]: > 20 µM (inactive)
- IC50 [3]: 10.6 µM (active)
- IC50 [4]: 10 µM (active)

SMILES: COc1cccc(CN2CCN(Cc3cc(OC)c(OC)cc3[N+](=O)[O-])CC2)c1.O=C(O)C(=O)O
- IC50 [21]: > 47.1 µM (inactive)
- EC50 [22]: > 53 µM (inactive)
- IC50 [12]: 56.8 µM (active)
- AC50 [23]: 14.1 µM (inconclusive)
- AC50 [24]: inconclusive
- AC50 [1]: > 150 µM (inactive)

SMILES: O=S(=O)(N[C@@H]1CC[C@H](CCn2cc(-c3ccccn3)nn2)O[C@@H]1CO)c1cccc(F)c1
- AC50 [18]: 79.4 µM (active)

SMILES: CN1CCC(O)(c2cccs2)C(C(=O)c2cccs2)C1 (centres undefined)
- CC50 [8]: > 20 µM (active)
- IC50 [9]: 15.4 µM (active)

SMILES: CCCCCC(=O)NC(N=C(S)NC1CCS(=O)(=O)C1)C(Cl)(Cl)Cl (centres undefined)
- IC50 [17]: > 64 µM (inactive)

SMILES: CN(C)c1nc(SCC#N)nc(N2CCOCC2)n1
- AC50 [1]: 66.1 µM (active)

SMILES: O=C(Nc1ccc(N2CCCCC2)cc1)c1cncc(Br)c1
- EC50 [25]: > 79.4 µM (not active)
- EC50 [26]: > 79.4 µM (not active)
- EC50 [27]: > 79.4 µM (not active)
- AC50 [28]: 50.2 µM (active)
- AC50 [29]: 14.1 µM (inconclusive)

SMILES: Cc1ccccc1NC(=O)Cn1nnc2c(cnn2-c2ccc(F)cc2)c1=O
- IC50 [17]: > 64 µM (inactive)
